Patent publication US12187742B2 (XRAD Therapeutics, Inc., priority 2018, dated 2025)
Counter-ions that a name gives are not always drawn.

These compounds were tested against ATM (Homo sapiens (Human), UniProt Q13315) (assay: ATM in Cell Western Assay (pKAP1 in etoposide-treated MCF-7 cells)). Settings: MCF-7 cells, etoposide 100 μM, 1 hr, pKAP1 readout.
Type: cell-based
Summary of the method: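 After paraformaldehyde fixation and Triton X-100 permeabilization, immunostained plates were read by infrared scanning (ODYSSEY CLx). Compound was given as 10 doses, 3-fold dilutions from a 1 μM final top concentration.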

Sequence of ATM (Q13315 whole entry): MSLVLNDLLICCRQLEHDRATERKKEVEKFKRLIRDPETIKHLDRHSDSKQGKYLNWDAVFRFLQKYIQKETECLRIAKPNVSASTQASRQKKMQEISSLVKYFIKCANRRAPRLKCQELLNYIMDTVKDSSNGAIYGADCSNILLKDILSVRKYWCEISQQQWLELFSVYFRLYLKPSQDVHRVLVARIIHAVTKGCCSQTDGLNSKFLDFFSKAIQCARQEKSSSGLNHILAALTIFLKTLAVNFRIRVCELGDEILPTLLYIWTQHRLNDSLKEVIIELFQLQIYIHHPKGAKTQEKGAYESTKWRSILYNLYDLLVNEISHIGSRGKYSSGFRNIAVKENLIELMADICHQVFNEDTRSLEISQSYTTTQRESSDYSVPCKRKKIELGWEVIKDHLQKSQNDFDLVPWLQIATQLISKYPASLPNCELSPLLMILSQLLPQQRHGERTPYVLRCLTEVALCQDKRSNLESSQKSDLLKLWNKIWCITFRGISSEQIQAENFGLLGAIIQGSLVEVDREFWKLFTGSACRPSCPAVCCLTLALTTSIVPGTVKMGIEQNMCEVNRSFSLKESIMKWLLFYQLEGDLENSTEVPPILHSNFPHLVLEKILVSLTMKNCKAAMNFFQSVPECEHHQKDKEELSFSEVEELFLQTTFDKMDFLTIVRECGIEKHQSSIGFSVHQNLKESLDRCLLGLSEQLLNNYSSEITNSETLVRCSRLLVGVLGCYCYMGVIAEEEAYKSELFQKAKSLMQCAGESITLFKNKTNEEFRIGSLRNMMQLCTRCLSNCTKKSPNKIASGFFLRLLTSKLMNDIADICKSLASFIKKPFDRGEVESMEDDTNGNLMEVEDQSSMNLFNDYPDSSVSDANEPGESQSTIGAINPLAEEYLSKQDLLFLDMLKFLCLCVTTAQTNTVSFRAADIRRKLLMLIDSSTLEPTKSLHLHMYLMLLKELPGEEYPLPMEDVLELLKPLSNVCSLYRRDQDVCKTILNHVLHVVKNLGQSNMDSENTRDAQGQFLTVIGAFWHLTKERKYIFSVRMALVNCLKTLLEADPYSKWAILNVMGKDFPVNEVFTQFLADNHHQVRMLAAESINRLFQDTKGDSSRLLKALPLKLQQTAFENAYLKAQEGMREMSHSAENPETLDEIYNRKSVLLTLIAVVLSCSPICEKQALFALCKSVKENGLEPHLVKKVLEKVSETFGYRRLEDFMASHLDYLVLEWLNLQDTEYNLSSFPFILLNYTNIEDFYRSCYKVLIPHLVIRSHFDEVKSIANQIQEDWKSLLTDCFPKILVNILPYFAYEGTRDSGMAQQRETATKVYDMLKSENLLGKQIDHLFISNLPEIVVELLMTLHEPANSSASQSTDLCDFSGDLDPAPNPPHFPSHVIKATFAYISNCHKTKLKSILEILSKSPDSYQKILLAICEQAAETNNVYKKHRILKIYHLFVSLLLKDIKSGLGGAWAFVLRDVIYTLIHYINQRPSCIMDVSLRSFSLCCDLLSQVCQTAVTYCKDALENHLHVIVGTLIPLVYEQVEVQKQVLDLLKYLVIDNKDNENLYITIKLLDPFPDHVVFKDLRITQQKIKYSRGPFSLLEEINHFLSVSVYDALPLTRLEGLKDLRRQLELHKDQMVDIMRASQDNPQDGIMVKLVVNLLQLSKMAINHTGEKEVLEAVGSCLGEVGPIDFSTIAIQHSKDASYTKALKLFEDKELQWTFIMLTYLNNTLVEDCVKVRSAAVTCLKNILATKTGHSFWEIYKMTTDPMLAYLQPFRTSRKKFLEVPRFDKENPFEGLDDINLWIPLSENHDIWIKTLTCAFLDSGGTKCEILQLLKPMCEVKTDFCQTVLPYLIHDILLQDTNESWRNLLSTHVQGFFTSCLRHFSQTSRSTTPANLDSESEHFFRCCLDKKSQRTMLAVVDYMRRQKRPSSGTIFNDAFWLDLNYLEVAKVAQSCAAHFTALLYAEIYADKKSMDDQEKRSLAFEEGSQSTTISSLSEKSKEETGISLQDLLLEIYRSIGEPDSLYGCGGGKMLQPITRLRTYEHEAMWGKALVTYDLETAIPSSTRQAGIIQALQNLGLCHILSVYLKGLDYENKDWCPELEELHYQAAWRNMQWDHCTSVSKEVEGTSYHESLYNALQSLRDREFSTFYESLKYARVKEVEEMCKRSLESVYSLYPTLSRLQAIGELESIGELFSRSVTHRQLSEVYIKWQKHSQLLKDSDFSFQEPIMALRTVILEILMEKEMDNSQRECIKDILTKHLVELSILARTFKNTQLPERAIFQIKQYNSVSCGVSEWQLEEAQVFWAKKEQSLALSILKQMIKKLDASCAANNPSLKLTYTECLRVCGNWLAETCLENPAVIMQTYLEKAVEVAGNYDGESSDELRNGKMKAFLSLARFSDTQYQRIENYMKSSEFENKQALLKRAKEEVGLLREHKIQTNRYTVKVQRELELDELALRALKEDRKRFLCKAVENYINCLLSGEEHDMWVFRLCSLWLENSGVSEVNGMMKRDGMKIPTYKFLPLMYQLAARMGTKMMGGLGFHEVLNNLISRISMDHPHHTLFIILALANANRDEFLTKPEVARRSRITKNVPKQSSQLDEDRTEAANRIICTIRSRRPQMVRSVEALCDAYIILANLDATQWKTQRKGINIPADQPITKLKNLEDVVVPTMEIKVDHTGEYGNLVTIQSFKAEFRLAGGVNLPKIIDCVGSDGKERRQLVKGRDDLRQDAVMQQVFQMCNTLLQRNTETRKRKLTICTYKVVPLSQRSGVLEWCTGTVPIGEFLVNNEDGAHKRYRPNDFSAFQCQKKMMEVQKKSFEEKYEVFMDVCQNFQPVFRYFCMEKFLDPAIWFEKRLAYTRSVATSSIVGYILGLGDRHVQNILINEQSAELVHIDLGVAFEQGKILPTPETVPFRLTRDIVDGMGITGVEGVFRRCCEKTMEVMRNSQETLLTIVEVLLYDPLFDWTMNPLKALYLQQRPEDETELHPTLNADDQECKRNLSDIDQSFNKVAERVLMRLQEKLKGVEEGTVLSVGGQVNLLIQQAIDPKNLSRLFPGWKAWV

`CN1C(=O)C2(CCC2)c2c1cnc1ccc(-c3cnc(CCCCN4CCCCC4)c(NS(C)(=O)=O)c3)cc21` [Example 269, N-(5-(3′-Methyl-2′-oxo-2′,3′-dihydrospiro[cyclobutane-1,1′-pyrrolo[2,3-c]quinolin]-8′-yl)-2-(4-(piperidin-1-yl)butyl)pyridin-3-yl)methanesulfonamide] and `CN1C(=O)C2(CCC2)c2c1cnc1ccc(-c3cnc(OCCCN4CCCCC4)c(NS(=O)(=O)CF)c3)cc21` [Example 301, 1-Fluoro-N-(5-(3′-methyl-2′-oxo-2′,3′-dihydrospiro[cyclobutane-1,1′-pyrrolo[2,3-c]quinolin]-8-yl)-2-(3-(piperidin-1-yl)propoxy)pyridin-3-yl) methanesulfonamide] fall in the same range of IC50: 0.001 to 0.1 µM for the first, 0.001 to 0.1 µM for the second.

First: CN(C)c1ccc(-c2ncc(-c3ccc4ncc5c(c4c3)C3(CCC3)C(=O)N5C)cc2NS(C)(=O)=O)cn1 [Example 271, N-(6′-(Dimethylamino)-5-(3′-methyl-2′-oxo-2′,3′-dihydrospiro[cyclobutane-1,1′-pyrrolo[2,3-c]quinolin]-8′-yl)-[2,3′-bipyridin]-3-yl)methanesulfonamide]
Second: CN1C(=O)C2(CCC2)c2c1cnc1ccc(-c3cnc(OCC(CO)N(C)C)c(NS(C)(=O)=O)c3)cc21 (stereo not drawn) [Example 296, N-(2-(2-(dimethylamino)-3-hydroxypropoxy)-5-(3′-methyl-2′-oxo-2′,3′-dihydrospiro[cyclobutane-1,1′-pyrrolo[2,3-c]quinolin]-8′-yl)pyridin-3-yl)methanesulfonamide]
The IC50 of the first is lower: 0.001 to 0.1 µM for the first, greater than 0.1 µM for the second. The first is the more potent here.

`CN(C)CCCOc1ncc(-c2ccc3ncc4c(c3c2)C2(CCC2)C(=O)N4C)cc1NS(=O)(=O)CS(C)(=O)=O` [Example 274, N-(2-(3-(Dimethylamino)propoxy)-5-(3′-methyl-2′-oxo-2′,3′-dihydrospiro[cyclobutane-1,1′-pyrrolo[2,3-c]quinolin]-8′-yl)pyridin-3-yl)-1-(methylsulfonyl)methanesulfonamide] and `CC(CCOc1ncc(-c2ccc3ncc4c(c3c2)C2(CCC2)C(=O)N4C)cc1NS(C)(=O)=O)N(C)C` (stereo not drawn) [Example 292, N-(2-(3-(Dimethylamino)butoxy)-5-(3′-methyl-2′-oxo-2′,3′-dihydrospiro [cyclobutane-1,1′-pyrrolo[2,3-c]quinolin]-8′-yl)pyridin-3-yl)methanesulfonamide] fall in the same range of IC50: 0.001 to 0.1 µM for the first, 0.001 to 0.1 µM for the second.

`CCc1ncc(S(=O)(=O)Nc2cc(-c3ccc4ncc5c(c4c3)C3(CCC3)C(=O)N5C)cnc2OCCNC)s1` [Example 275, 2-Ethyl-N-(5-(3′-methyl-2′-oxo-2′,3′-dihydrospiro[cyclobutane-1,1′-pyrrolo[2,3-c]quinolin]-8′-yl)-2-(2-(methylamino)ethoxy)pyridin-3-yl)thiazole-5-sulfonamide] and `CCN1C(=O)C2(CCC2)c2c1cnc1ccc(-c3cnc(OCCNC)c(NS(C)(=O)=O)c3)cc21` [Example 308, N-(5-(3′-Ethyl-2′-oxo-2′,3′-dihydrospiro[cyclobutane-1,1′-pyrrolo[2,3-c]quinolin]-8′-yl)-2-(2-(methylamino)ethoxy)pyridin-3-yl) methanesulfonamide hydrochloride] fall in the same range of IC50: 0.001 to 0.1 µM for the first, 0.001 to 0.1 µM for the second.

First: CN1CC=C(c2ncc(-c3ccc4ncc5c(c4c3)C3(CCC3)C(=O)N5C)cc2NS(C)(=O)=O)CC1 [Example 276, N-(1′-Methyl-5-(3′-methyl-2-oxo-2′,3′-dihydrospiro[cyclobutane-1,1′-pyrrolo[2,3-c]quinolin]-8′-yl)-1′,2′,3′,6′-tetrahydro-[2,4′-bipyridin]-3-yl)methanesulfonamide]
Second: CN1C(=O)C2(CCC2)c2c1cnc1ccc(-c3cnc(OCC4CNC4)c(NS(C)(=O)=O)c3)cc21 [Example 310, N-(2-(Azetidin-3-ylmethoxy)-5-(3′-methyl-2′-oxo-2′,3′-dihydrospiro[cyclobutane-1,1′-pyrrole[2,3-c]quinolin]-8′-yl)pyridin-3-yl) methanesulfonamide hydrochloride]
The IC50 of the first is lower: 0.001 to 0.1 µM for the first, greater than 0.1 µM for the second.

Compared with `CN1C(=O)C2(CCC2)c2c1cnc1ccc(-c3cnc(OCC(CO)N4CCCCC4)c(NS(C)(=O)=O)c3)cc21` (stereo not drawn) [Example 284, N-(2-(3-Hydroxy-2-(piperidin-1-yl)propoxy)-5-(3′-methyl-2′-oxo-2′,3′-dihydrospiro[cyclobutane-1,1′-pyrrolo[2,3-c]quinolin]-8′-yl)pyridin-3-yl)methanesulfonamide], `CN1C(=O)C2(CCC2)c2c1cnc1ccc(-c3cnc(OCCCN4CCNCC4)c(NS(C)(=O)=O)c3)cc21` [Example 300, N-(5-(3′-Methyl-2′-oxo-2′,3′-dihydrospiro[cyclobutane-1,1′-pyrrole[2,3-c]quinolin]-8′-yl)-2-(3-(piperazin-1-yl)propoxy)pyridin-3-yl) methanesulfonamide] is lower in IC50: greater than 0.1 µM for the first, 0.001 to 0.1 µM for the second.

`CN1C(=O)C2(CCC2)c2c1cnc1ccc(-c3cnc(OCCCN4CCCC(F)(F)C4)c(NS(C)(=O)=O)c3)cc21` [Example 298, N-(2-(3-(3,3-Difluoropiperidin-1-yl)propoxy)-5-(3′-methyl-2′-oxo-2′,3′-dihydrospiro[cyclobutane-1,1′-pyrrolo[2,3-c]quinolin]-8′-yl)pyridin-3-yl)methanesulfonamide] and `CN1C(=O)C2(CCC2)c2c1cnc1ccc(-c3cnc(OCCCN4CC(F)(F)C4)c(NS(C)(=O)=O)c3)cc21` [Example 307, N-(2-(3-(3,3-Difluoroazetidin-1-yl)propoxy)-5-(3′-methyl-2′-oxo-2′,3′-dihydrospiro[cyclobutane-1,1′-pyrrolo[2,3-c]quinolin]-8′-yl)pyridin-3-yl) methanesulfonamide formate] cannot be ordered by IC50: greater than 0.1 µM for the first, greater than 0.1 µM for the second.

First: CN1C(=O)C2(CCC2)c2c1cnc1ccc(-c3cnc(OCCCN4CC5CC(C4)O5)c(NS(C)(=O)=O)c3)cc21 [Example 303, N-(2-(3-(6-Oxa-3-azabicyclo[3.1.1]heptan-3-yl)propoxy)-5-(3′-methyl-2′-oxo-2′,3′-dihydrospiro[cyclobutane-1,1′-pyrrolo[2,3-c]quinolin]-8′-yl)pyridin-3-yl)methanesulfonamide]
Second: CN1C(=O)C2(CCC2)c2c1cnc1ccc(-c3cnc(N4CC(N5CCCCC5)C4)c(NS(C)(=O)=O)c3)cc21 [Example 321, N-(5-(3′-Methyl-2′-oxo-2′,3′-dihydrospiro[cyclobulane-1,1′-pyrrolo[2,3-c]quinolin]-8′-yl)-2-(3-(piperidin-1-yl)azetidin-1-yl)pyridin-3-yl)methanesulfonamide hydrochloride]
The IC50 of the first is higher: greater than 0.1 µM for the first, 0.001 to 0.1 µM for the second.

`CN1C(=O)C2(CCC2)c2c1cnc1cc(F)c(-c3cnc(N4CC(N(C)C)C4)c(NS(=O)(=O)N4CCOCC4)c3)cc21` [Example 312, N-(2-(3-(Dimethylamino)azetidin-1-yl)-5-(7′-fluoro-3′-methyl-2′-oxo-2′,3′-dihydrospiro[cyclobutane-1,1′-pyrrolo[2,3-c]quinolin]-8′-yl)pyridin-3-yl)morpholine-4-sulfonamide hydrochloride] and `CCN(C)C1CN(c2ncc(-c3cc4c5c(cnc4cc3F)N(C)C(=O)C53CCC3)cc2NS(C)(=O)=O)C1` [Example 313, N-(2-(3-(Ethyl(methyl)amino)azetidin-1-yl)-5-(7′-fluoro-3′-methyl-2′-oxo-2′,3′-dihydrospiro[cyclobutane-1,1′-pyrrolo[2,3-c]quinolin]-8′-yl)pyridin-3-yl)methanesulfonamide hydrochloride] fall in the same range of IC50: 0.001 to 0.1 µM for the first, 0.001 to 0.1 µM for the second.

`COCCN(C)C1CN(c2ncc(-c3cc4c5c(cnc4cc3F)N(C)C(=O)C53CCC3)cc2NS(C)(=O)=O)C1` [Example 314, N-(5-(7′-Fluoro-3′-methyl-2′-oxo-2′,3′-dihydrospiro[cyclobutane-1,1′-pyrrolo[2,3-c]quinolin]-8′-yl)-2-(3((2-methoxyethyl)(methyl)amino)azetidin-1-yl)pyridin-3-yl)methanesulfonamide hydrochloride] and `CC(C)NC1CN(c2ncc(-c3cc4c5c(cnc4cc3F)N(C)C(=O)C53CCC3)cc2NS(C)(=O)=O)C1` [Example 328, N-(5-(7′-Fluoro-3′-methyl-2′-oxo-2′,3′-dihydrospiro[cyclobutane-1,1′-pyrrolo[2,3-c]quinolin]-8′-yl)-2-(3-(isopropylamino)azetidin-1-yl)pyridin-3-yl)methanesulfonamide hydrochloride] fall in the same range of IC50: 0.001 to 0.1 µM for the first, 0.001 to 0.1 µM for the second.

`CN1C(=O)C2(CCC2)c2c1cnc1cc(F)c(-c3cnc(N4CC(N(C)C)C4)c(NS(=O)(=O)c4ccccc4F)c3)cc21` [Example 322, N-(2-(3-(Dimethylamino)azetidin-1-yl)-5-(7′-fluoro-3′-methyl-2′-oxo-2′,3′-dihydrospiro[cyclobulane-1,1′-pyrrolo[2,3-c]quinolin]-8′-yl)pyridin-3-yl)-2-fluorobenzenesulfonamide hydrochloride] and `Cc1cc2ncc3c(c2cc1-c1cnc(N2CC(N(C)C)C2)c(NS(C)(=O)=O)c1)C1(CCC1)C(=O)N3C` [Example 335, N-(5-(3′-,7′-Dimethyl-2′-oxo-2′,3′-dihydrospiro[cyclobutane-1,1′-pyrrolo[2,3-c]quinolin]-8′-yl)-2-(3-(dimethylamino)azetidin-1-yl)pyridin-3-yl)methanesulfonamide] fall in the same range of IC50: 0.001 to 0.1 µM for the first, 0.001 to 0.1 µM for the second.

First: CN1C(=O)C2(CCC2)c2c1c(N)nc1ccc(-c3cnc(N4CC(N(C)C)C4)c(NS(C)(=O)=O)c3)cc21 [Example 327, N-(5-(4′-Amino-3′-methyl-2′-oxo-2′,3′-dihydrospiro[cyclobutane-1,1′-pyrrolo[2,3-c]quinolin]-8′-yl)-2-(3-(dimethylamino)azetidin-1-yl)pyridin-3-yl)methanesulfonamide hydrochloride]
Second: CCN1C(=O)C2(CCC2)c2c1cnc1ccc(-c3cnc(N4CC(N(C)C)C4)c(NS(C)(=O)=O)c3)cc21 [Example 336, N-(2-(3-(Dimethylamino)azetidin-1-yl)-5-(3′-ethyl-2′-oxo-2′,3′-dihydrospiro [cyclobutane-1,1′-pyrrolo[2,3-c]quinolin]-8′-yl)pyridin-3-yl) methanesulfonamide]
The IC50 of the first is higher: greater than 0.1 µM for the first, 0.001 to 0.1 µM for the second.
